As a reminder, the IC50 is the concentration at which inhibition is half-maximal. Higher therefore signals weaker potency.

Assay [1] deals with T98G. The note with it: cited from earlier work.
The test system of assay [2] is human glioblastoma cell line U251. Nature of the assay: ATCC MTT Cell Proliferation Assay, U251. The note with it: U251, 72 hours treatment. The format is cell-based. The protocol:
Tris(8-quinolinolato)gallium(III) and temozolomide were tested in human glioblastoma cell line U251 (which is resistant to BCNU, See Beljanski et al., Anticancer Res., 13(6A):2301-8 (1993)). Specifically, ATCC's MTT Cell Proliferation Assay® was performed using glioblastoma cell line U251. Stock cultures were allowed to grow to 70-80% confluence for this study. The anti-proliferative activity of tris(8-quinolinolato)gallium(III) or temozolomide against the cell line was evaluated in vitro using the ATCC's MTT Cell Proliferation Assay (Catalog No. 30-1010K). Cultures were maintained in a 37° C. humidified 5% CO2/95% air atmosphere. The cells were treated with tris(8-quinolinolato)gallium(III) or temozolomide at 1,000 μM, or a series of 4x dilutions thereof (250 μM, 62.5 μM, etc.). 100 μl of medium was removed from each well at 72 hours post-treatment and 10 μl MTT reagent was added to each well. The plates were incubated at 37° C. for 4 hours and then 100 μl of detergent was added. The plates were left overnight at room temperature in the dark and was read on a plate reader using SoftMax® Pro (version 5.2, Molecular Devices).
The absorbance data was analyzed as follows: Absorbance values were converted to Percent of Control and plotted against test agent concentrations for IC50 calculations using SoftMax® Pro (version 5.2, Molecular Devices). The plate blank signal average was subtracted from all wells prior to calculating the Percent of Control. Percent of Control values were calculated by dividing the absorbance values for each test well by the No Drug Control average (column 11 values; cells +vehicle control) and multiplying by 100. Plots of Compound Concentration versus Percent of Control were analyzed using the 4-parameter equation to obtain IC50 values and other parameters that describe the sigmoidal dose response curve.
The IC50 value for the test agent was estimated by curve-fitting the data using the following four parameter-logistic equation: […]

The subject of assay [3] is U87. Particulars: cited from earlier work.
Assay [4] relates to U373. Particulars: cited from earlier work.
In assay [5] the test system is T98G. Nature of the assay: MTT assay, glioblastoma cell line T98G. The format is cell-based. How it is done:
(§1) To test the activities of tris(8-quinolinolato)gallium(III) (“drug”), MTT assays were performed using glioblastoma cell lines. Cells were plated (2×10^3 cells in 100 μl/well) in 96-well plates and allowed to recover for 24 hours. The drug was added in another 100 μl growth medium and incubated with cultured cells for 3 hours before the cell culture medium was replaced to remove the drug. Cell death was measured 72 hours after the initial incubation by MTT assay following the manufacturer's recommendations (EZ4U, Biomedica, Vienna, Austria).
For orientation: Tetrazolium assays rely on reduction of a dye to a coloured formazan, in cell work by metabolically active cells.

The test system of assay [6] is U87. Nature of the assay: MTT assay, glioblastoma cell line U87. The format is cell-based. How it is done:
as §1

For assay [7], the system named is U373. Nature of the assay: MTT assay, glioblastoma cell line U373. The format is cell-based. The note with it: drug incubated 3 hours, MTT 72 hours after initial incubation. How it is done:
as §1

The subject of another assay is glioma cell line U87. The experiment in a line: 3-dimentional tumor model (HuBiogel), MTT assay and Calcein AM live-cell staining. The format is cell-based. How it is done: The compound tris(8-quinolinolato)gallium(III) was tested in a 3-dimentional tumor model derived from glioma cell line U87. Specifically, cells were trypsinized, washed, counted by trypan blue exclusion. Tumor beads were then prepared by mixing 20,000 cells/10 μl of HuBiogel (4 mg/mL) (See U.S. patent application Ser. No. 10/546,506, which is incorporated herein by reference). The 3-D tumor beads were cultivated for 72 hours in multi-well plates with complete media (10% FBS) in a 37° C. incubator +5% CO2. Mini-tumors were treated with various concentrations of the test compound tris(8-quinolinolato)gallium(III) in media (final 0.2-0.3% DMSO) or control (DMSO). Repeated drug treatment was done by removing the culture media and replacing with fresh media with drug compound or DMSO. On Day 3, MTT assay and live-cell staining with Calcein AM were performed (5 beads/assay set).
Statistical analysis of data sets (Average, T-test, GI-50) was performed using MS-Excel program. The average GI-50 (the drug concentration required for growth inhibition at 50%) is 0.94 μM.

A further assay has as its system ACHU. Nature of the assay: MTT assay, glioblastoma cell line ACHU. The format is cell-based. Particulars: drug incubated 3 hours, MTT 72 hours after initial incubation. How it is done:
as §1

With `O=NN(CCCl)C(=O)NCCCl` [BCNU], the “BCNU (% cytostasis with 50 μg/ml BCNU)” value was 37.5 ± 8.6% with T98G [1], 18.5 ± 8.2% with U87 [3] and 30.4 ± 8.6% in the assay with U373 [4]. This compound gave an IC50 in assay [2] of 53700 nM.
In the case of `Cn1nnc2c(C(N)=O)ncn2c1=O` [temozolomide], it took 283000 nM to reach half-maximal inhibition in assay [2] (Homo sapiens, U-251) (IC50).
As for `[Ga+3].[O-]c1cccc2cccnc12.[O-]c1cccc2cccnc12.[O-]c1cccc2cccnc12` [tris(8-quinolinolato)gallium(III)], the IC50 in [2] was 4040 nM; with T98G [5] (drug incubated 3 hours, MTT 72 hours after initial incubation), 2000 nM; in the assay on U87 [6] (U87, drug incubated 3 hours, MTT 72 hours after initial incubation), 940 nM; in the assay on U373 [7], 2500 nM; in the assay on ACHU it was 300 nM. For the same compound, the “activity in cells” value with T98G [5] (resistant to temozolomide) is given as “active”. The “activity against cell line” value in the assay with U87 [6] (U87, relatively resistant to BCNU) is “active”. For the same compound, the GI50 with glioma cell line U87 (U87 3-D tumor beads in HuBiogel, MTT on Day 3, read-out: average GI-50 (drug concentration required for growth inhibition at 50%)) was 940 nM. Also, the “tumor killing in live-cell staining/image analysis” value with glioma cell line U87 (U87 3-D tumor beads, Calcein AM, Day 3) is “dose-dependent tumor killing”. In the assay on glioma cell line U87 (U87 3-D tumor beads, MTT, Day 3), the “tumor proliferation activity” value is “significantly inhibited”.
